Laboratory results taken from US6946480B2, “Glutaminyl based DPIV inhibitors” (priority 2002, dated 2005).

Assays:
plasma DPIV activity = biological target: T1, plasma DPIV activity (Rattus norvegicus, UniProt P14740); test: Plasma DPIV inhibiting activity after intravasal and oral administration to Wistar rats; format: in vivo; settings: 100 mg/kg b.w. vs. placebo, oral and intra-vasal administration
T1 construct: The assay mixture for determination of plasma DPIV activity consisted of 80 μl reagent and 20 μl plasma sample; from tissue; host or cells: plasma of male Wistar rats
T1 sequence (P14740 37-767 limits assumed): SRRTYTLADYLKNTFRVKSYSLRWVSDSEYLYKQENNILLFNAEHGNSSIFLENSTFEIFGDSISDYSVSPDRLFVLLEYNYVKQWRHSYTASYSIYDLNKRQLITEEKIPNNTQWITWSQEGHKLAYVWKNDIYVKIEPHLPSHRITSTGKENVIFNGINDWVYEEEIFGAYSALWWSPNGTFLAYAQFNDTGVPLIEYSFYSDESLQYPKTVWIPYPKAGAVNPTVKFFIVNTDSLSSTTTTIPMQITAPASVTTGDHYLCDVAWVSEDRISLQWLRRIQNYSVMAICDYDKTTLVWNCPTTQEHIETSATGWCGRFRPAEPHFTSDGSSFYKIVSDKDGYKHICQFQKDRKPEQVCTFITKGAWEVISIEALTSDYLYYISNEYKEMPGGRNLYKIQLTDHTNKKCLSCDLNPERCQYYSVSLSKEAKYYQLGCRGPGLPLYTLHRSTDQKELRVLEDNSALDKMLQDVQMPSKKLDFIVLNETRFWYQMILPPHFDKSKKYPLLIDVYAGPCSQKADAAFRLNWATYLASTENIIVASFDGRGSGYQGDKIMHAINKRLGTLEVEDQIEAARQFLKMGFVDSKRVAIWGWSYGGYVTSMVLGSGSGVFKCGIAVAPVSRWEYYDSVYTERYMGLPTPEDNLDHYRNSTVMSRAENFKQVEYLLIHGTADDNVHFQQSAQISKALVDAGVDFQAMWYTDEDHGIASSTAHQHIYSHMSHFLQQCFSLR
Method: Male Wistar rats (Shoe: Wist(Sho)) with a body weight ranging between 250 and 350 g were purchased from Tierzucht Schönwalde (Schönwalde, Germany).
Animals were single-caged under conventional conditions with controlled temperature (22±2° C.) on a 12/12 hours light/dark cycle (light on at 06:00 AM). Standard pelleted chow (ssniff® Soest, Germany) and tap water acidified with HCl were allowed ad libitum.
After ≧one week of adaptation at the housing conditions, catheters were implanted into the carotid artery of Wistar rats under general anaesthesia (i.p. injection of 0.25 ml/kg b.w. Rompun® [2%], BayerVital, Germany and 0.5 ml/kg b.w. Ketamin 10, Atarost GmbH & Co., Twistringen, Germany). The animals were allowed to recover for one week. The catheters were flushed with heparin-saline (100 IU/ml) three times per week. In case of catheter dysfunction, a second catheter was inserted into the contra-lateral carotid artery of the respective rat. After one week of recovery from surgery, this animal was reintegrated into the study. In case of dysfunction of the second catheter, the animal was withdrawn from the study. […]
Statistical evaluations and graphics were performed with PRISM® 3.02 (GraphPad Software, Inc.). All parameters were analysed in a descriptive manner including mean and SD.

[1] = Plasma stability (half-life of inhibitory potency in human plasma); format: in vitro ADME
Method: In order to investigate the stability of glutaminyl pyrrolidine or glutaminyl thiazolidine in human plasma, the activity of DPIV in plasma was determined at a defined time. The average DPIV activity in human plasma was determined as 43.69 U/ml. In the working solution, the plasma was diluted in 0.9% NaCl to fix the DPIV activity level at 25 U/ml.
Plasma and glutaminyl pyrrolidine or glutaminyl thiazolidine in different concentrations (5*10^−5, 2.5*10^−5, 1.25*10^−5M in plasma) were incubated at 37° C. At defined time points samples were taken using a pipette roboter (Gilson 215, Liquid handler, Gilson) and transferred in a microtiter plate containing 5*10^−5M glycylprolylaminomethylcoumarine in 0.9% NaCl+015% Brij per well. After 6 min the reaction was stopped by addition of isoleucylthiazolidine (5*10^−5M in 0.9% NaCl solution).
Fluorescence measurement was performed against 0.9% NaCl in plasma (reference standard) using a plate reader (HTS7000plus, Applied Biosystems, Weiterstadt, Germany). The half-life of the inhibitory potency of glutaminyl pyrrolidine or glutaminyl thiazolidine was calculated by plotting the enzyme activity versus reaction time.

SMILES: NC(=O)CC[C@H](N)C(=O)N1CCCC1 [glutaminyl pyrrolidine]
- inhibition of plasma DPIV activity in vivo (plasma DPIV activity): inhibited plasma DPIV activity
- half-life of the inhibitory potency in human plasma ([1]; 37° C., 5*10^−5, 2.5*10^−5, 1.25*10^−5M): no half-time could be determined
- stability in human plasma ([1]; over 22 hours): stable in human plasma over 22 hours
